Assay: Metabolic stability measured in human liver microsomes
Assay type: in vitro ADME
Protocol: Microsome reactions were performed under either Phase I or “Phase I and II” conditions, where indicated. Compound stocks (10 mM ACN) were initially initially diluted to a concentration of 60 μM (in 60% ACN/H2O) resulting in a “working stock” stock” solution of 100×. Human liver microsomes were utilized at a final concentration of 0.6 mg/ml. Duplicate wells were used for each time point (0, 6, 10, 30, and 60 minutes). Reactions were carried out at 37° C. in a shaking water bath, and the final concentration of solvent was kept constant at 0.6%. The final volume for each reaction was 600 μl, comprised of […] of 100 mM KPO4 buffer, (pH 7.4); 12.6 μl of HLM (from a 20 mg/ml stock); 6 μl of 100×“working stock” drug compound, and 126 μl of NRS “master mix” solution. At each time point, 100 μl of reaction was removed and added to a sample well containing 100 μl of ice-cold, 100% ACN (plus internal standards), to stop the reaction. The NRS “master mix” is a solution of glucose-6-phosphate dehydrogenase, NADP^+, MgCl2, and glucose-6-phosphate, prepared per manufacturer's instructions (BD Biosciences, Waltham, Mass.). Each 6.0 ml stock of NRS “master mix” solution contains 3.8 […], 1.0 ml solution “A” (Cat. #461220), and 0.2 ml solution “B” (Cat. #461200). Human liver microsomes (lot #0610279, Xenotech Corp.) represented a pool of 60 donors. donors.
Samples were centrifuged at 3,000 rpm for 10 minutes at 4° C. to remove debris and precipitate protein. Approximately 160 μl of supernatant was subsequently transferred to a new sample block for analysis. The concentration of parent drug remaining in each well (expressed as percent remaining versus Time ‘0’, at the beginning of the reaction) was measured by LC/MS, as detailed below.
All samples were analyzed on the MDS/Sciex API4000 Q Trap system with electrospray ionization (ESI) in the positive or negative SIM mode, depending on the compounds. The mobile phases were isocratic at 30% A (0.1% formic acid in water) and 70% B (0.1% formic acid in acetonitrile) with a flow rate of 0.4 mL/min. A Phenomenex Luna Phenyl-Hexyl column (60×2.0 mm ID, 6μ) was used. The injection volume was 10 μL. The total run time per sample was 1.6 to 3.0 minutes. […] The percentage of parent drug compound remaining after each time point was determined relative to the initial measured concentration at the beginning of the reaction (T0 min).
For half-life determination, data was fitted using GraphPad Prism, v 4.03 with the non-linear regression equation “one phase exponential decay” defined as: Y=Span*exp(−K*X)+Plateau (decays to Plateau with a first-order rate constant, K). […] Intrinsic Clearance (μl/min/mg protein) is defined as: CLint=0.693*(1/T1/2)*(ml incubation/mg protein)*1000; This equation can also be expressed as (K*1000)/microsome concentration.

C[C@](O)(COc1ccc(Cl)c(F)c1)C(=O)Nc1ccc(C#N)c(C(F)(F)F)c1 [S-II, (S)-3-(4-chloro-3-fluorophenoxy)-N-(4-cyano-3-(trifluoromethyl)phenyl)-2-hydroxy-2-methylpropanamide]
CLint (ul/min/mg) Phase I + II (Phase I + II): <1 µL/min/mg
Half Life (minutes) Phase I + II (Phase I + II, 0.6 μM): Stable
Half Life (minutes) Phase I only (Phase I only, 0.6 μM): Stable
microsomal CLint at 0.6 μM (human, human liver microsomes, pH 7.4, Phase I only, read-out: CLint (ul/min/mg) Phase I only): < 1 µL/min/mg
